Data reported in US12624019B2, “Indazole derivative, and preparation method therefor and use thereof” (Leadingtac Pharmaceutical (Shaoxing) Co., Ltd., priority 2020, dated 2026).

Legend:
IRAK4 kinase = biological target: T1, IRAK4 kinase (Homo sapiens, UniProt Q9NWZ3); assay: IRAK4 kinase activity test (KinEASE-STK HTRF kit); assay type: biochemical; settings: IRAK4 kinase inhibition, 7 μM ATP, 37° C. 120 min
T1 sequence (Q9NWZ3 1-460): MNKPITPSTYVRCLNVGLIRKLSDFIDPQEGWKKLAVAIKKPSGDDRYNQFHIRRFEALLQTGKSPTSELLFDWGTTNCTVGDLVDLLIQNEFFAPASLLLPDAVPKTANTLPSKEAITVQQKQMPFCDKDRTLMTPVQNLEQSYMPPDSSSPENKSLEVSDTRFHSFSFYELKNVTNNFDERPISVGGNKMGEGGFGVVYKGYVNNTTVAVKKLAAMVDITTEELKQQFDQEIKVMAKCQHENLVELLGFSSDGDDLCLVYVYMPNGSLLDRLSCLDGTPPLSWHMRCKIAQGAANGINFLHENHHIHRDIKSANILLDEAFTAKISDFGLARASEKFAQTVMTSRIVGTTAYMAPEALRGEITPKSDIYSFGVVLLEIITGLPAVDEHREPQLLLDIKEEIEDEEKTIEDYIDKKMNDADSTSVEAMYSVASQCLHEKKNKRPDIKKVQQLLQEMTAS
Protocol: KinEASE-STK Si serine/threonine kinase kit (Cisbio) was used to detect the inhibitory effect of the compound on IRAK4 kinase activity. The specific method was: the compound was dissolved in dimethyl sulfoxide, and then it was diluted with the buffer solution of the kit by equal gradient to make the final concentration range of the tested compound in the reaction system 10000 nM-0.038 nM, then 2.5 nM kinase, 1 μM biotinylated polypeptide substrate and 7 μM adenosine triphosphate (ATP) were added in sequence and incubated at 37° C. for 120 min. Subsequently, anti-phosphorylated serine/threonine antibody coupled with europium element compound and modified XL665 streptavidin were added to the reaction system to terminate the reaction. After incubating at room temperature for 1 h, the fluorescence intensity of each well at the emission wavelength of 620 nm and 665 nm and the excitation wavelength of 337 nm was determined in HTRF mode on the microplate reader EnVision (PerkinElmer), the ratio value was calculated using the formula Ratio=(665 nm/620 nm)×10^4. By comparing with the fluorescence intensity ratio of the control group, the inhibition rate of the compound at each concentration was calculated, and then the IC50 value of the compound was obtained by fitting the nonlinear curve with the logarithmic concentration-inhibition rate by GraphPad Prism 7.

[1] = biological target: T2, IRAK4 kinase protein in THP-1 cells (Homo sapiens, UniProt Q9NWZ3); assay: Degradation of IRAK4 in THP-1 cells by Western Blot; assay type: cell-based; settings: 24 hours; for DC50 / Dmax: IRAK4 degradation in THP-1 cells; for DC50: read-out: WB DC50; for Dmax: read-out: WB Dmax; for WB D(%) (300 nM) / WB D(%) (1000 nM): degradation percentage of IRAK4 in THP-1 cells; for WB D(%) (300 nM): compound 300 nM; for WB D(%) (1000 nM): compound 1000 nM
T2 construct: endogenous in cells; host or cells: THP-1 cells
T2 sequence (Q9NWZ3 1-460): T1 sequence (Q9NWZ3 1-460)
Protocol: Each well of the 24-well cell culture plate was inoculated with 0.95 mL THP-1 cells (stem cell bank of Chinese academy of sciences) with a cell density of 5×10^5 cells/well. The cell plate was placed in a 5% carbon dioxide incubator and cultured overnight at 37° C., then 50 μL compound in dimethyl sulfoxide was added. The final concentration of the compound was in the range of 1-3000 nM. After continuous cultivation for 24 hours, the cells were collected into a 1.5 mL centrifuge tube, centrifuged at 1000 rpm and 4° C. for 5 minutes. Cell precipitation was washed twice with 1×DPBS, resuspended cells were lysed with 200 μL lysate (cell lysate was Western and IP cell lysate (Beyotime), supplemented with 1 mM mixture of phenylmethylsulfonyl fluoride and protease inhibitor (Beyotime)), left on ice for 30 minutes, then centrifuged at 14000 g at 4° C. for 10 minutes, and the supernatant was taken to detect IRAK4 protein level by Western blot.
The total protein concentration in the supernatant of cell lysis was determined by BCA protein quantitative kit (Tiangen). According to the concentration of total protein detected by BCA, the supernatant was adjusted to […] with PBS and 5×SDS-PAGE protein loading buffer (Beyotime), bathed in water at 100° C. for 10 minutes, then placed in ice bath for 5 minutes, centrifuged at 14000 g and 4° C. for 5 minutes, and then collected as WB loading sample. Prefabricated glue (KeyGEN) was used for protein electrophoresis with a loading amount of 10 μL (total protein 2 μg). After Tris-MOPS-SDS electrophoresis solution (Adamas), 120V constant pressure electrophoresis was performed. After electrophoresis, the protein on the adhesive strip was transferred to PVDF membrane with a constant current of […] for 50 minutes. After the membrane was transferred, the membrane was added in 1×QuickBlock blocking buffer (Beyotime) and incubated for 30 minutes at room temperature. After blocking, PVDF membranes were incubated with IRAK4 primary antibody (Abcam) overnight at 4°, the membranes were washed with TBST buffer (2.4 g Tris, 8.8 g NaCl, 1.5 mL Tween 20, pH adjusted to 7.4, constant volume to 1 L) for 30 minutes, incubated with secondary antibody (Abcam) for 2 hours at room temperature, finally incubated with Clarity Western ECL Substrate (BIO-RAD) for 5 minutes for luminescence development, chemiluminescence imaging system (Clinx, chemiScope 6200 Touch) was used for development and protein mapping photography. The protein map was analyzed by Clinx chemiluminescence analysis software for grayscale values. Using the formula: grayscale correction value=(target protein grayscale value/corresponding internal reference grayscale value)×[…], the grayscale correction value of each sample was calculated. The degradation rate was calculated by comparing with the grayscale correction value of the control group. Furthermore, DC50 and Dmax values of the compound were obtained by the nonlinear curve fitting with the logarithmic concentration-inhibition rate by GraphPad Prism 7.

IKZF1 = biological target: T3, IKZF1 (Homo sapiens, UniProt Q13422+Q96SW2); assay: Degradation of IKZF1 in L363 cells by Western blot; assay type: cell-based; settings: compound 1000 nM, 16 hours
T3 construct: endogenous in cells; host or cells: L363 cells
T3 sequence (Q13422 whole entry): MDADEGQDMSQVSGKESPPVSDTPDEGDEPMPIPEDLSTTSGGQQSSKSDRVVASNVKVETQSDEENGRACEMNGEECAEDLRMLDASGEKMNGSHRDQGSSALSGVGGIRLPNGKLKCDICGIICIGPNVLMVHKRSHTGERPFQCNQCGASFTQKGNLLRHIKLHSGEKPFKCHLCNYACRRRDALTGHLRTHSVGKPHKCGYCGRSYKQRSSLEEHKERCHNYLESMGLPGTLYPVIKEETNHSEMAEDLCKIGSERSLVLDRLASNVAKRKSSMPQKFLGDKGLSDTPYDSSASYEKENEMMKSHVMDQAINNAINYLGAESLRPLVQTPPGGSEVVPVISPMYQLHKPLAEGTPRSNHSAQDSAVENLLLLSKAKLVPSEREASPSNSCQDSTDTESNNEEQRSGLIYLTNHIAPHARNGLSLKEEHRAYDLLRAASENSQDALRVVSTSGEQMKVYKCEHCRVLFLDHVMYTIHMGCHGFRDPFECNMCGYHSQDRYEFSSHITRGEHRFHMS
T3 sequence (Q96SW2 whole entry): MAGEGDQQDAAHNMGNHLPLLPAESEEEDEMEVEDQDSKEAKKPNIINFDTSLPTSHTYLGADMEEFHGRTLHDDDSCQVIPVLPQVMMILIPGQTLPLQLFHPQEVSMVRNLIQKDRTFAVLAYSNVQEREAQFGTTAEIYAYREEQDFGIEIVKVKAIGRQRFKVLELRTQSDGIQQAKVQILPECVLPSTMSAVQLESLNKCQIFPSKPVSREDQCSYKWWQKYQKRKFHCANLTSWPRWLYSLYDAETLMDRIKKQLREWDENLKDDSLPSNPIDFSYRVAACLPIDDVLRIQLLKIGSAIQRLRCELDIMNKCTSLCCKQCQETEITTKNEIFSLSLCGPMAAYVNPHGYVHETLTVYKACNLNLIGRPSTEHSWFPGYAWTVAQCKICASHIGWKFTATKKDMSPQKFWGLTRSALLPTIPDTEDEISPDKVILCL
T3 sequence (Q16531 whole entry partner): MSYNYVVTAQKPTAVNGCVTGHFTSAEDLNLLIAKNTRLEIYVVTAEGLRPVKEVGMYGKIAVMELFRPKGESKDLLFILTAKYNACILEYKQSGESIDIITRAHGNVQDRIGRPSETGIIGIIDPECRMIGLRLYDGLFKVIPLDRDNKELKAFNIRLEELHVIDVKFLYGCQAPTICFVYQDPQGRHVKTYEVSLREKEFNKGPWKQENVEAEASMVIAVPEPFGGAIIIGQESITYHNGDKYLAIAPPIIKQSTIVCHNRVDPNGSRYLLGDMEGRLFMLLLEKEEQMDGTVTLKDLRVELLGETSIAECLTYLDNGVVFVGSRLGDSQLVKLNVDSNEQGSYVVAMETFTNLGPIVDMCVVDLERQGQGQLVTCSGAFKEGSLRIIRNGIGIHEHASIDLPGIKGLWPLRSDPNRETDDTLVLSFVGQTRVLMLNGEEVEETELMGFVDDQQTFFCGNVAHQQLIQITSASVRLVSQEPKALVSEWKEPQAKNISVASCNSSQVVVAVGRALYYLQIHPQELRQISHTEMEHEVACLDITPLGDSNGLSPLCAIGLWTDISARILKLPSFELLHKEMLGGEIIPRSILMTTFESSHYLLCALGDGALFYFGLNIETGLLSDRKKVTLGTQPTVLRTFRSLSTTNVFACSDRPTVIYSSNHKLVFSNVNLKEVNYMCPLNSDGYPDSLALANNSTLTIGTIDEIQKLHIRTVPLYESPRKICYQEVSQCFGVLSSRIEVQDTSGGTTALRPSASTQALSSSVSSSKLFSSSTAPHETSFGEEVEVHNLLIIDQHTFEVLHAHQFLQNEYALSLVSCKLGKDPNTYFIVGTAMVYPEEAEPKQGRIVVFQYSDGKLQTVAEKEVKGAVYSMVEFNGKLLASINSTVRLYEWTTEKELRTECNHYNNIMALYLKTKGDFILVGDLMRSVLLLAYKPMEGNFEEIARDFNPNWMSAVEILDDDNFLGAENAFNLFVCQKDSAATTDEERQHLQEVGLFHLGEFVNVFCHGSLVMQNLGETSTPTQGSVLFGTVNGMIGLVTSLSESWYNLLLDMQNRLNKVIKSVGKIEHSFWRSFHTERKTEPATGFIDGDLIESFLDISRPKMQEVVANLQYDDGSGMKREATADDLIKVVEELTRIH
Protocol: (§1) The 24-well cell culture plate was inoculated with 0.95 mL L363 cells (Nanjing Co-bioer) per well with a cell density of 6×10^5 cells/well. The cell plate was placed in a 5% carbon dioxide incubator and cultured at 37° C. for 8 hours, then 50 μL of compound solution was added. The final concentration of the compound was 1000 nM. After continuing to culture for 16 hours, the cells were collected into a 1.5 mL centrifuge tube and centrifuged at 3000 rpm and 4° C. for 5 minutes. Cell precipitation was washed twice with 1×DPBS, resuspended cells were lysed with 100 μL lysate (cell lysate was Western and IP cell lysate (Beyotime), supplemented with 1 mM mixture of phenylmethylsulfonyl fluoride and protease inhibitor (Beyotime)), left on ice for 30 minutes, then centrifuged at 14000 g at 4° C. for 10 minutes, and the supernatant was taken to detect IKZF1 and IKZF3 protein level by Western blot.
(§2) The total protein concentration in the supernatant of cell lysis was determined by BCA protein quantitative kit (Tiangen). According to the concentration of total protein detected by BCA, the supernatant was adjusted to […] with PBS and 5×SDS-PAGE protein loading buffer (Beyotime), bathed in water at 100° C. for 10 minutes, then placed in ice bath for 5 minutes, centrifuged at 14000 g and 4° C. for 5 minutes, and then collected as WB loading sample. Prefabricated glue (KeyGEN) was used for protein electrophoresis with a loading amount of 10 μL (total protein 2 μg). After Tris-MOPS-SDS electrophoresis solution (Adamas), 120V constant pressure electrophoresis was performed. After electrophoresis, the protein on the adhesive strip was transferred to PVDF membrane with a constant current of […] for 50 minutes. After the membrane was transferred, the membrane was incubated in 5% bovine serum albumin solution for 2 hours at room temperature. After blocking, PVDF membranes were incubated with IKZF1 primary antibody (CST) and IKZF3 primary antibody (Abcam) overnight at 4°, the membranes were washed with TBST buffer (2.4 g Tris, 8.8 g NaCl, 1.5 mL Tween 20, pH adjusted to 7.4, constant volume to 1 L) for 30 minutes, incubated with secondary antibody (Abcam) for 2 hours at room temperature, finally incubated with Clarity Western ECL Substrate (BIO-RAD) for 5 minutes for luminescence development, chemiluminescence imaging system (Clinx, chemiScope 6200 Touch) was used for development and protein mapping photography. The protein map was analyzed by Clinx chemiluminescence analysis software for grayscale values. Using the formula: grayscale correction value=(target protein grayscale value/corresponding internal reference grayscale value)×10^3, the grayscale correction value of each sample was calculated. The degradation rate was calculated by comparing with the grayscale correction value of the control group.

IKZF3 = biological target: T4, IKZF3 (Homo sapiens, UniProt Q96SW2+Q9UKT9); assay: Degradation of IKZF3 in L363 cells by Western blot; assay type: cell-based; settings: compound 1000 nM, 16 hours
T4 construct: endogenous in cells; host or cells: L363 cells
T4 sequence (Q9UKT9 whole entry): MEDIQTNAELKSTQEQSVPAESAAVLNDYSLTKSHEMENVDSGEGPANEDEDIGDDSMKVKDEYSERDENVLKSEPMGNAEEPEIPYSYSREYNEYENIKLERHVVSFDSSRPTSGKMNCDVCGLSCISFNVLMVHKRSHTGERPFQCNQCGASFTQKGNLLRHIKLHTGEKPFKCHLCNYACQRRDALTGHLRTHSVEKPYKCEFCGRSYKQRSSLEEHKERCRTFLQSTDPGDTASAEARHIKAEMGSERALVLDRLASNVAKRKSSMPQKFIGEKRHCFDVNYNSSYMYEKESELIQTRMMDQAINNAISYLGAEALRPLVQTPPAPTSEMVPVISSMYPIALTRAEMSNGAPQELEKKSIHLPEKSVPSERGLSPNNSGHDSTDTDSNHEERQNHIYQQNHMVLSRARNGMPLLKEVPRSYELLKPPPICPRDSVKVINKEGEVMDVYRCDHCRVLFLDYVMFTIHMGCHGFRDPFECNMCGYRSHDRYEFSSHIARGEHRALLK
T4 sequence (Q96SW2 whole entry): as the sequence (Q96SW2 whole entry) above
T4 sequence (Q16531 whole entry partner): as the sequence (Q16531 whole entry partner) above
Protocol: as §1, §2

Row | SMILES | IC50 (IRAK4 kinase) [nM] | DC50 [1] [nM] | Dmax [1] [%] | WB D(%) (300 nM) [1] | WB D(%) (1000 nM) [1] | IKZF1 degradation rate (%) (IKZF1) | IKZF3 degradation rate (%) (IKZF3)
1 | CC(C)(O)c1cc2nn(C3CCN(CCN4CCN(c5ccc6c(c5)C(=O)N(C5CCC(=O)NC5=O)C6=O)CC4)CC3)cc2cc1NC(=O)c1cccc(C(F)(F)F)n1 (centres unmarked) [Example 4, N-(2-(1-(2-(4-(2-(2,6-dioxopiperidin-3-yl)-1,3-dioxoisoindolin-5-yl)piperazin-1-yl)ethyl)piperidin-4-yl)-6-(2-hydroxyprop-2-yl)-2H-indazol-5-yl)-6-(trifluoromethyl) pyridinecarboxamide] | 17.8 | 1.7 | 99.9 | 99.5 | 99.9 | 4.3 ± 0.8 | −4.5 ± 2.9
2 | CC(C)(O)c1cc2nn(C3CCN(CCC4CCN(c5ccc6c(c5)C(=O)N(C5CCC(=O)NC5=O)C6=O)CC4)CC3)cc2cc1NC(=O)c1cccc(C(F)(F)F)n1 (centres unmarked) [Example 5, N-(2-(1-(2-(1-(2-(2,6-dioxopiperidin-3-yl)-1,3-dioxoisoindolin-5-yl)piperidin-4-yl)ethyl)piperidin-4-yl)-6-(2-hydroxyprop-2-yl)-2H-indazol-5-yl)-6-(trifluoromethyl) pyridinecarboxamide] | 41.1 | 12.1 | 92.4 | 91.3 | 89.5 | 18.8 ± 2.7 | 22.4 ± 6.6
